We go through 5 compounds from BindingDB's records for doi:10.1111/cbdd.12161 (Dalian University of Technology, 2013).

The test deals with T1, Induced myeloid leukemia cell differentiation protein Mcl-1 [172-327] (Homo sapiens, UniProt Q07820).
T1 construct: 172-327
T1 sequence (Q07820 172-327): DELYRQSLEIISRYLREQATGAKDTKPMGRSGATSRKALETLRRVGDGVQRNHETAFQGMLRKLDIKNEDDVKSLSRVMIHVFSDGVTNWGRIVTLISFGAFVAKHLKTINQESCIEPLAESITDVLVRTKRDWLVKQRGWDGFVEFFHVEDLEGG
As to the kind of experiment: ITC experiments. The note with it: pH 8; 25 °C. The protocol: ITC experiments were carried out using iTC200 (Microcal LLC, Northampton, MA, USA) with each of the compounds 1-6 and Mcl-1 protein. The heat of reaction was obtained by making 16 injections (2.4 µL each) of the ligand (final concentration in the syringe of 200 µM in 50 mM Tris, 150 mM NaCl, and 5% DMSO, pH 8.0) into the reaction cell that contained Mcl-1 in the same buffer (final protein concentration of 20 µM). The experiments were done at 25°C and at a stirring speed of 500 rpm. For the control experiment, the sample cell was filled with the assay buffer and the compound solution was added, respectively.
(In general: In ITC the heat of successive injections is recorded.)
One may read the Kd as the equilibrium constant for the complex coming apart. Higher therefore signals lower affinity. `O=C1c2ccccc2C(=O)c2cc(O)c(O)cc21`: the Kd was determined as 1850 nM.

Consider `Cc1ccc(Sc2ccc3c(c2)C(=O)c2cc(O)c(O)cc2C3=O)cc1`, for which the Kd was found to be 950 nM. With `O=C1c2ccc(Sc3ccccc3)cc2C(=O)c2cc(O)c(O)cc21` the figure was 1470 nM. With `CC(C)c1ccc(Sc2ccc3c(c2)C(=O)c2cc(O)c(O)cc2C3=O)cc1` the figure was 238 nM.

`O=C1c2ccc(Br)cc2C(=O)c2cc(O)c(O)cc21`: the Kd was found to be 1840 nM.
